Laboratory results taken from BigSolDB 2.1.

OC(Cn1cncn1)(Cn1cncn1)c1ccc(F)cc1F
solubility (mole fraction)
Conditions | in 1,4-dioxane | in THF | in chloroform | in ethanol | in methanol | in n-butanol | in n-propanol
298.15 K | 0.0124 | 0.0121 | 0.0135 | 0.011 | 0.0141 | 0.0058 | 0.0115
303.15 K | 0.0165 | 0.0155 | 0.0136 | 0.0147 | 0.0193 | 0.0066 | 0.0127
308.15 K | 0.0194 | 0.0197 | 0.0139 | 0.017 | 0.0286 | 0.008 | 0.0148
313.15 K | 0.0219 | 0.0225 | 0.0148 | 0.0231 | 0.0422 | 0.0102 | 0.0175
318.15 K | 0.0257 | 0.0273 | 0.016 | 0.0284 | 0.06 | 0.0132 | 0.021
323.15 K | 0.0304 | 0.0331 | 0.0181 | 0.0354 | 0.088 | 0.016 | 0.0278
